# Source: patent EP0032314A1, “Aroylpyrrole derivatives, processes for their preparation and their use” (BEECHAM GROUP PLC, priority 1980, dated 1981)
# Tests used:
# [1] = tested on: phenylquinone induced mouse writhing; test: phenylquinone induced mouse writhing test (analgesic activity); assay type: in vivo; settings: po
# Protocol: Analgesic activity was determined using a conventional phenylquinone induced mouse writhing test.
# test animals = settings: in vivo
# [2] = reported in J. Pharmacol, Exptl. Therap. 1973, 185, 127-138; cited from earlier work
smiles,measurement,setting,value
"CC(=O)CCc1cc(C)c(C(=O)c2ccc(Cl)cc2)n1C [Example 1, 4-(1,4-dimethyl-p-chlorobenzoyl-2-pyrryl)butan-2-one]",ED50,[1],6.1 mg/kg
Cc1ccc(C(=O)c2ccc(CC(=O)O)n2C)cc1 [Tolmetin],gastric irritancy,test animals,causes gastric irritancy
same,anti-inflammatory activity,[2],possess anti-inflammatory activity
